{
  "source": "patent US9820481B2",
  "about": "“Encapsulation of active ingredients and method of making” (Arch Chemicals, Inc., priority 2013, dated 2017)",
  "experiment": "Degradation temperature by thermal gravimetric analysis (TGA) or differential scanning calorimetry (DSC)",
  "assay_type": "physicochemical",
  "procedure": "The degradation temperature was determined by thermal gravimetric analysis (TGA) or differential scanning calorimetry (DSC).",
  "data": [
    {"substance": "zinc pyrithione [A (comp)]", "values": [
      {"measurement": "Degradation Temp", "value": 265, "unit": "°C"}
    ]}
  ]
}
